Reference: US4966973A, “2-substituted coumaran derivatives” (Takeda Chemical Industries, Ltd., priority 1988, dated 1990)

Molecular target: T1, 5-lipoxygenase (Rattus norvegicus, UniProt P12527)
T1 construct: endogenous in cells; host or cells: RBL-1 (rat basophilic leukemia) cells
T1 sequence (P12527 1-673): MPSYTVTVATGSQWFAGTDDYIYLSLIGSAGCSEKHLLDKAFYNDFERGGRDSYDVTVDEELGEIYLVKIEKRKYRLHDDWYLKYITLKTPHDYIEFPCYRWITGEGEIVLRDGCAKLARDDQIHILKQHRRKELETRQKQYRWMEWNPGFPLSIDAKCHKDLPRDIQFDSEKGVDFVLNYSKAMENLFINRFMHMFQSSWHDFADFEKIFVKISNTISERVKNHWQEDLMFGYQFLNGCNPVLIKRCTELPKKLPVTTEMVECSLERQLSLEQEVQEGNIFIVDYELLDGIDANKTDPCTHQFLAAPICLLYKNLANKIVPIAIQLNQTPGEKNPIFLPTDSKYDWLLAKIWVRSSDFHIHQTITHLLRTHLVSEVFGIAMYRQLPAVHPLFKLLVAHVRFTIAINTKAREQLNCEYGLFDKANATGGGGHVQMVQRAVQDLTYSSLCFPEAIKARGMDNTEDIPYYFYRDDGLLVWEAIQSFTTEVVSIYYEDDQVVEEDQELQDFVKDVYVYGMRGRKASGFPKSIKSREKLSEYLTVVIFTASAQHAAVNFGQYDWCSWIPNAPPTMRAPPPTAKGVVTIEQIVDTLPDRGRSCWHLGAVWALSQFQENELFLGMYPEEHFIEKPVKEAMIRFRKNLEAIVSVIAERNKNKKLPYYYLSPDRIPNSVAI
Assay: Effect of Inhibiting 5-Lipoxygenase (inhibition of 5-HETE production in RBL-1 cells, HPLC)
Format: cell-based
Details: arachidonic acid + A-23187, 37° C., 20 min, read-out: % Inhibition (IE) of 5-HETE production; for inhibition at 10 µM: 10^-5 M; for inhibition at 1 µM: 10^-6 M; for inhibition at 0.1 µM: 10^-7 M; for inhibition at 0.01 µM: 10^-8 M
Protocol: In 0.5 ml of MCM (mast cell medium) was suspended 10^7 of rat basophilic leukemia (RBL-1) cells. To this suspension was added the test solution previously prepared [consisting of 0.5 ml of MCM, […] of arachidonic acid, 10 μg of calcium ionophore A-23187 and the test compound (final concentrations 10 μM, 1 μM, 0.1 μM and 0.01 μM)], and the reaction was allowed to proceed at 37° C. for 20 minutes. To the reaction mixture was added 4 ml of ethanol, which was shaken sufficiently, followed by leaving the resultant mixture standing for 10 minutes at room temperatures. The resultant mixture was subjected to a centrifuge (2000 rpm) for 10 minutes, then the supernatant was separated. Thus-separated supernatant was concentrated to dryness under reduced pressure. To the concentrate was added 0.5 ml of a 60% aqueous methanol. A 100 μl portion of this solution was taken and subjected to high performance liquid chromatography to determine 5-HETE (5-hydroxyeicosatetraenoic acid) quantitatively. UV absorption of 5-HETE at 237 nm was measured with a UV absorption monitor. The inhibitory effect (IE) of 5-HETE is expressed by (1-b/a) x 100. In this formula, a means the height of the peak or the area of the peak in the case of presence of no compound (I), while b means the height of the peak or the area of the peak in the case of containing the compound (I).

Row | SMILES | inhibition at 10 µM [%] | inhibition at 1 µM [%] | inhibition at 0.1 µM [%] | inhibition at 0.01 µM [%]
1 | Cc1c(C)c2c(c(C)c1O)CC(CSCCC(=O)O)O2 (centres unmarked) [Compound 1] | 100 | 100 | 64 | 13
2 | Cc1c(C)c2c(c(C)c1O)CC(CSc1ccccc1)O2 (centres unmarked) [Compound 3] | 100 | 100 | 100 | 42
3 | CCCCCCCCSCC1Cc2c(C)c(O)c(C)c(C)c2O1 (centres unmarked) [Compound 5] | 100 | 100 | 48 | 24
4 | Cc1c(C)c2c(c(C)c1O)CC(CSc1ccccn1)O2 (centres unmarked) [Compound 7] | 100 | 100 | 45 | –
5 | Cc1c(C)c2c(c(C)c1O)CC(CSc1ccc(F)cc1)O2 (centres unmarked) [Compound 9] | 100 | 100 | 96 | 8
6 | Cc1c(C)c2c(c(C)c1O)CC(CSc1ccc3ccccc3c1)O2 (centres unmarked) [Compound 11] | 100 | 100 | 19 | –
7 | Cc1c(C)c2c(c(C)c1O)CC(C[S+]([O-])c1ccccc1)O2 (centres unmarked) [Compound 13] | 100 | 100 | 8 | –
8 | Cc1c(C)c2c(c(C)c1O)CC(CS(=O)(=O)c1ccccc1)O2 (centres unmarked) [Compound 15] | 100 | 100 | 19 | 10

Second part, the compound after the results:

Row | inhibition at 10 µM [%] | inhibition at 1 µM [%] | inhibition at 0.1 µM [%] | inhibition at 0.01 µM [%] | SMILES
9 | 100 | 100 | 88 | – | Cc1c(C)c2c(c(C)c1O)CC(CSCc1ccccc1)O2 (centres unmarked) [Compound 17]
10 | 100 | 99 | 87 | -5 | Cc1c(C)c2c(c(C)c1O)CC(C)(CSc1ccccc1)O2 (centres unmarked) [Compound 19]
11 | 100 | 100 | 98 | 18 | Cc1c(C)c2c(c(C)c1O)CC(C)(CSc1ccc(F)cc1)O2 (centres unmarked) [Compound 21]
12 | 95 | 99 | 94 | 14 | Cc1c(C)c2c(c(C)c1O)CC(C)(CNCCc1ccccc1)O2 (centres unmarked) [Compound 25]
